The target of one experiment is kappa opioid receptor (Homo sapiens, UniProt P41145). As to the kind of experiment: Filtration binding assay: kappa opioid receptor.
The next experiment addresses mu opioid receptor (Homo sapiens, UniProt P35372). Briefly: Filtration binding assay: mu opioid receptor.

The structures appear in SMILES notation.

Chain of mu opioid receptor (P35372 whole entry): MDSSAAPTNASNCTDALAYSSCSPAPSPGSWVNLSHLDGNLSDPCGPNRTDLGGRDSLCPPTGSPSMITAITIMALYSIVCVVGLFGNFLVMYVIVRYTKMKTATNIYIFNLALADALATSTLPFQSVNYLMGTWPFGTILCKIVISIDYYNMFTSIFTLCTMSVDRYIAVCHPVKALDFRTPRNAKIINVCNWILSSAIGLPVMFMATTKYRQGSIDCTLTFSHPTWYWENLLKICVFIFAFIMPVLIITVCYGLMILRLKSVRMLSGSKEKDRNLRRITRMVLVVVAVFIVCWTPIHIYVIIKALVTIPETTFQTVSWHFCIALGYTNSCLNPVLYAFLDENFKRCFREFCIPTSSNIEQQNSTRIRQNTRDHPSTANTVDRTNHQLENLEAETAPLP
Chain of kappa opioid receptor (P41145 whole entry): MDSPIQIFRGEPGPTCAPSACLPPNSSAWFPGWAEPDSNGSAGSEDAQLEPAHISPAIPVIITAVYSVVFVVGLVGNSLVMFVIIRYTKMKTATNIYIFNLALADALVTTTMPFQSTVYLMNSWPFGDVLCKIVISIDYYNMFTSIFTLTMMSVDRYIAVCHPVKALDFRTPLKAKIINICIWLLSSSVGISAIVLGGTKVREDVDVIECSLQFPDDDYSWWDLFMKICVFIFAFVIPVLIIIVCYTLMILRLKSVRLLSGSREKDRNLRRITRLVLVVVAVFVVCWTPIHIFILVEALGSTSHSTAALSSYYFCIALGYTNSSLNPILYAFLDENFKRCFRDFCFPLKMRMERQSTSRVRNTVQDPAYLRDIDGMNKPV

As for `COc1ccc(CNC[C@H](O)CN2CN(c3ccc(F)cc3)C3(CCN(C4Cc5cccc6cccc4c56)CC3)C2=O)cc1OC` (mixture of isomers) [compound 307], the IC50 worked out at 210 nM on kappa opioid receptor and 750 nM on mu opioid receptor.

Consider `O=C1N(C[C@@H](O)CN(CCc2ccccc2)Cc2ccccc2)CN(c2ccc(F)cc2)C12CCN(C1Cc3cccc4cccc1c34)CC2` (mixture of isomers) [compound 313], for which the results for the IC50 on kappa opioid receptor and at mu opioid receptor were 500 nM and 330 nM, respectively.

Turning to `O=C1N(C[C@@H](O)CNCc2cc(C(F)(F)F)cc(C(F)(F)F)c2)CN(c2ccc(F)cc2)C12CCN(C1Cc3cccc4cccc1c34)CC2` (mixture of isomers) [compound 319], the IC50 on kappa opioid receptor came out at 580 nM; on mu opioid receptor, 320 nM.

As for `COc1cc(CNC[C@H](O)CN2CN(c3ccc(F)cc3)C3(CCN(C4Cc5cccc6cccc4c56)CC3)C2=O)cc(OC)c1OC` (mixture of isomers) [compound 320], the IC50 on kappa opioid receptor is 120 nM; on mu opioid receptor, 340 nM.

As for `COc1cc(CNC[C@H](O)CN2CN(c3ccc(F)cc3)C3(CCN(C4Cc5cccc6cccc4c56)CC3)C2=O)cc(OC)c1` (mixture of isomers) [compound 324], the values for the IC50 on kappa opioid receptor and on mu opioid receptor were 230 nM and 110 nM, respectively.

Take `O=C1N(C[C@@H](O)CN2CCN(c3cccc(C(F)(F)F)c3)CC2)CN(c2ccc(F)cc2)C12CCN(C1Cc3cccc4cccc1c34)CC2` (mixture of isomers) [compound 333]: the IC50 on kappa opioid receptor was 390 nM; on mu opioid receptor it was 240 nM.

With `O=C1N(C[C@@H](O)CN2CCN(C(c3ccccc3)c3ccc(Cl)cc3)CC2)CN(c2ccc(F)cc2)C12CCN(C1Cc3cccc4cccc1c34)CC2` (mixture of isomers) [compound 337], the IC50 is 250 nM at kappa opioid receptor and 550 nM on mu opioid receptor.

For the compound `CCCCN(CCCC)CCCNC[C@H](O)CN1CN(c2ccc(F)cc2)C2(CCN(C3Cc4cccc5cccc3c45)CC2)C1=O` (mixture of isomers) [compound 338], the IC50 at kappa opioid receptor is 140 nM; at mu opioid receptor, 740 nM.

For the compound `COc1cc(OC)c(CNC[C@H](O)CN2CN(c3ccc(F)cc3)C3(CCN(C4Cc5cccc6cccc4c56)CC3)C2=O)c(OC)c1` (mixture of isomers) [compound 367], the figures for the IC50 at kappa opioid receptor and on mu opioid receptor were 360 nM and 1860 nM, respectively.

In the case of `O=C1N(C[C@@H](O)CNCCc2ccccc2)CN(c2ccc(F)cc2)C12CCN(CC1CCCCCCC1)CC2` [Compound #11], the IC50 came to 290 nM on kappa opioid receptor and 820 nM at mu opioid receptor.

On to `O=C1N(C[C@@H](O)CNCc2ccc(C(F)(F)F)cc2)CN(c2ccc(F)cc2)C12CCN(CC1CCCCCCC1)CC2` [Compound #29], for which the IC50 was found to be 410 nM on kappa opioid receptor and 5410 nM at mu opioid receptor.

Regarding `O=C1N(C[C@@H](O)CNCc2cccc(C(F)(F)F)c2)CN(c2ccc(F)cc2)C12CCN(CC1CCCCCCC1)CC2` [Compound #33], the figures for the IC50 at kappa opioid receptor and at mu opioid receptor were 1160 nM and above 10000 nM, respectively.

As for `COc1cc(CNC[C@H](O)CN2CN(c3ccc(F)cc3)C3(CCN(CC4CCCCCCC4)CC3)C2=O)cc(OC)c1OC` [Compound #43], the IC50 on kappa opioid receptor was 320 nM; at mu opioid receptor it was 540 nM.

With `O=C1N(C[C@@H](O)CNCc2ccccc2Br)CN(c2ccc(F)cc2)C12CCN(CC1CCCCCCC1)CC2` [Compound #44], the values for the IC50 at kappa opioid receptor and on mu opioid receptor were 160 nM and 1130 nM, respectively.

On to `O=C1N(C[C@@H](O)CN2CCc3ccccc3C2)CN(c2ccc(F)cc2)C12CCN(CC1CCCCCCC1)CC2` [Compound #72], for which the values for the IC50 at kappa opioid receptor and at mu opioid receptor were 790 nM and 1840 nM, respectively.

Turning to `CCCCN(Cc1ccccc1)C[C@H](O)CN1CN(c2ccc(F)cc2)C2(CCN(Cc3c(C)c(C)c(C)c(C)c3C)CC2)C1=O` [Compound #280, 3-[3-(Benzyl-butyl-amino)-2-(S)-hydroxy-propyl]-1-(4-fluoro-phenyl)-8-pentamethylphenylmethyl-1,3,8-triaza-spiro[4.5]decan-4-one], the IC50 at kappa opioid receptor worked out at 1080 nM; on mu opioid receptor, 2520 nM.

Regarding `Cc1cccc2cccc(CN3CCC4(CC3)C(=O)N(C[C@H](O)CN(C)C)CN4c3ccc(F)cc3)c12` [Compound #441, 3-(3-Dimethylamino-2-(R)-hydroxy-propyl)-1-(4-fluoro-phenyl)-8-(8-methyl-naphthalen-1-ylmethyl)-1,3,8-triaza-spiro[4.5]decan-4-one], the IC50 at kappa opioid receptor and at mu opioid receptor was above 10000 nM in each case.

In the case of `CCCCN(Cc1ccccc1)C[C@H](O)CN1CN(c2ccc(F)cc2)C2(CCN(Cc3c(Cl)cccc3C(F)(F)F)CC2)C1=O` [Compound #456, 3-[3-(Benzyl-butyl-amino)-2-(S)-hydroxy-propyl]-8-(2-chloro-6-trifluoromethyl-benzyl)-1-(4-fluoro-phenyl)-1,3,8-triaza-spiro[4.5]decan-4-one], the IC50 on kappa opioid receptor and at mu opioid receptor was above 10000 nM throughout.

On mu opioid receptor, `CNC[C@@H](O)CN1CN(c2ccc(F)cc2)C2(CCN(Cc3cccc4cccc(C)c34)CC2)C1=O` [Compound #660, 1-(4-Fluoro-phenyl)-3-(2-(R)-hydroxy-3-methylamino-propyl)-8-(8-methyl-naphthalen-1-ylmethyl)-1,3,8-triaza-spiro[4.5]decan-4-one] registered a Ki of 870 nM.

In the case of `O=C1N(C[C@@H](O)CNc2ccc(-c3ccccc3)cc2)CN(c2ccc(F)cc2)C12CCN(CC1CCCCCCC1)CC2` [compound 9], the IC50 at kappa opioid receptor was 1400 nM; at mu opioid receptor, 940 nM.

For the compound `O=C1N(C[C@@H](O)CNCc2cc(F)ccc2F)CN(c2ccc(F)cc2)C12CCN(CC1CCCCCCC1)CC2` [compound 12], the IC50 at kappa opioid receptor was 200 nM; at mu opioid receptor it was 520 nM.

`O=C1N(C[C@@H](O)CNc2ccc(Br)cn2)CN(c2ccc(F)cc2)C12CCN(CC1CCCCCCC1)CC2` [compound 13]: the IC50 on kappa opioid receptor was 120 nM; at mu opioid receptor, 620 nM.

For `COc1ccccc1CNC[C@H](O)CN1CN(c2ccc(F)cc2)C2(CCN(CC3CCCCCCC3)CC2)C1=O` [compound 14], the IC50 is 400 nM on kappa opioid receptor and 1200 nM at mu opioid receptor.

Regarding `O=C1N(C[C@@H](O)CNCc2ccc(Br)cc2)CN(c2ccc(F)cc2)C12CCN(CC1CCCCCCC1)CC2` [compound 15], the IC50 on kappa opioid receptor came out at 330 nM; on mu opioid receptor it was 850 nM.

Consider `COc1ccc(CNC[C@H](O)CN2CN(c3ccc(F)cc3)C3(CCN(CC4CCCCCCC4)CC3)C2=O)cc1OC` [compound 22], for which the figures for the IC50 on kappa opioid receptor and at mu opioid receptor were 300 nM and 600 nM, respectively.

Consider `O=C1N(C[C@@H](O)CNCc2ccc([N+](=O)[O-])cc2)CN(c2ccc(F)cc2)C12CCN(CC1CCCCCCC1)CC2` [compound 23], for which the IC50 is 490 nM at kappa opioid receptor and 9200 nM on mu opioid receptor.

For `O=C1N(C[C@@H](O)CNCCc2cccs2)CN(c2ccc(F)cc2)C12CCN(CC1CCCCCCC1)CC2` [compound 26], the results for the IC50 at kappa opioid receptor and at mu opioid receptor were 290 nM and 790 nM, respectively.

`O=C1N(C[C@@H](O)CNCc2ccc(Cl)cc2Cl)CN(c2ccc(F)cc2)C12CCN(CC1CCCCCCC1)CC2` [compound 31]: the IC50 at kappa opioid receptor turned out to be 280 nM; on mu opioid receptor it was 2930 nM.

With `O=C1N(C[C@@H](O)CN(CCc2ccccc2)Cc2ccccc2)CN(c2ccc(F)cc2)C12CCN(CC1CCCCCCC1)CC2` [compound 65], the IC50 on kappa opioid receptor was determined as 510 nM; at mu opioid receptor, 580 nM.

In turn, `O=C1N(C[C@@H](O)CN2C=CCC2)CN(c2ccc(F)cc2)C12CCN(CC1CCCCCCC1)CC2` [compound 70] registered an IC50 at mu opioid receptor of 630 nM.

`CN(C)c1ccc(CNC[C@@H](O)CN2CN(c3ccccc3)C3(CCN(CCc4ccccc4-c4cccs4)CC3)C2=O)cc1` [compound 139] showed an IC50 at mu opioid receptor of 103 nM.

`O=C1N(C[C@H](O)CNCCc2cc3ccc(F)cc3[nH]2)CN(c2ccccc2)C12CCN(CCc1ccccc1-c1cccs1)CC2` [compound 142] came in with an IC50 on mu opioid receptor of 104 nM.

`COc1ccc(CCNC[C@@H](O)CN2CN(c3ccccc3)C3(CCN(CCc4ccccc4-c4cccs4)CC3)C2=O)cc1` [compound 145] had an IC50 on mu opioid receptor of 104 nM.

The compound `O=C1N(C[C@@H](O)CN(CCc2ccccc2)Cc2ccccc2)CN(c2ccccc2)C12CCN(CCc1ccccc1-c1cccs1)CC2` [compound 230] yielded a 50% inhibitory concentration (IC50) at mu opioid receptor of 152 nM.

On mu opioid receptor, `O=C1N(C[C@@H](O)CNCCN2CCOCC2)CN(c2ccc(F)cc2)C12CCN(Cc1ccc3ccccc3c1)CC2` [compound 259] came in with an IC50 of 500 nM.

Regarding `O=C1N(C[C@@H](O)CNCCc2ccc3c(c2)OCO3)CN(c2ccc(F)cc2)C12CCN(Cc1ccc3ccccc3c1)CC2` [compound 262], at mu opioid receptor, the IC50 was determined as 850 nM.

On mu opioid receptor, `COc1ccc(CCN(C)C[C@H](O)CN2CN(c3ccc(F)cc3)C3(CCN(Cc4ccc5ccccc5c4)CC3)C2=O)cc1OC` [compound 263] came in with an IC50 of 590 nM.

`O=C1N(C[C@H](O)CNCCc2ccc3c(c2)OCO3)CN(c2ccc(F)cc2)C12CCN(Cc1ccc(Cl)cc1)CC2` [compound 268] came in with an IC50 at mu opioid receptor of 950 nM.

On mu opioid receptor, `COc1cc(CCNC[C@@H](O)CN2CN(c3ccc(F)cc3)C3(CCN(Cc4ccc(Cl)cc4)CC3)C2=O)c([N+](=O)[O-])cc1OC` [compound 269] yielded an IC50 of 2490 nM.

Regarding `COc1ccc(CCN(C)C[C@H](O)CN2CN(c3ccc(F)cc3)C3(CCN(Cc4ccc(Cl)cc4)CC3)C2=O)cc1OC` [compound 270], on mu opioid receptor, the IC50 was determined as 410 nM.

Take `CCOc1ccccc1NC[C@H](O)CN1CN(c2ccc(F)cc2)C2(CCN(CC3CCCCCCC3)CC2)C1=O` [compound 281]: the IC50 was 960 nM on kappa opioid receptor and 580 nM on mu opioid receptor.

For `O=C1N(C[C@@H](O)CNc2ccc(C3CCCCC3)cc2)CN(c2ccc(F)cc2)C12CCN(CC1CCCCCCC1)CC2` [compound 285], the IC50 on kappa opioid receptor was 2690 nM; on mu opioid receptor, 4780 nM.

In turn, `O=C1N(C[C@@H](O)CN(Cc2ccccc2)C[C@@H]2CCCC[C@@H]2O)CN(c2ccc(F)cc2)C12CCN(CC1CCCCCCC1)CC2` [compound 290] had an IC50 on mu opioid receptor of 930 nM.

`CNCCNC[C@@H](O)CN1CN(c2ccc(F)cc2)C2(CCN(Cc3cccc4cccc(C)c34)CC2)C1=O` [compound 661] came in with a Ki on mu opioid receptor of 800 nM.

At mu opioid receptor, `Cc1cccc2cccc(CN3CCC4(CC3)C(=O)N(C[C@H](O)CN3CC[C@@H](N(C)C)C3)CN4c3ccc(F)cc3)c12` [compound 708] showed a Ki of 490 nM.

Take `Cc1cccc2cccc(CN3CCC4(CC3)C(=O)N(C[C@H](O)CN3CCC(O)C3)CN4c3ccc(F)cc3)c12` (stereo partly shown) [compound 712]: at mu opioid receptor, the affinity corresponds to a Ki of 1950 nM.

One may read the IC50 as the concentration at which inhibition is half-maximal. By Ki is commonly meant the dissociation constant of the complex between target and ligand, obtained from inhibition or displacement.

Source of the values: patent publication US7582649B2, “Hydroxy alkyl substituted 1,3,8-triazaspiro[4.5]decan-4-one derivatives useful for the treatment of ORL-1 receptor mediated disorders” (Janssen Pharmaceutica, NV, priority 2002, dated 2009).
